Experimental data: PMC7938888, “Antidepressant drugs act by directly binding to TRKB neurotrophin receptors” (Cell, 2021)
“Also recorded” adds a separate entry of the source.

What was measured:
mice [1] = experiment: Ocular dominance plasticity (monocular deprivation, intrinsic signal imaging); type: in vivo, mouse; conditions: adult mice, 10 mg/kg i.p. every second day for 8 days
Description: The “transparent skull” preparation was executed as described in literature ([Steinzeig et al., 2017]). Briefly, adult female mice (20-22 weeks old) were anesthetized via i.p. injection with a mixture containing: 0.05 mg/kg fentanyl (Hameln, Germany); 5 mg/kg midazolam (Hameln, Germany); 0.5 mg/kg medetomidine (Orion Pharma, Finland); diluted in saline (B Braun, Germany). The animals’ eyes were covered with protective-gel (Alcon, UK). The animal’s head was shaved and disinfected with ethanol and Betadine. The mouse head was then fixed on the stereotaxic frame and the temperature was maintained at 37°C. A mixture of lidocaine and adrenaline (Orion Pharma, Finland) was applied locally on the head and the skin was cut with spring scissors. The incision area was restricted 2 mm above the bregma and caudal edge of intraparietal bone. The scalp was removed and a focused air stream and a cotton swab were used to clean and stop bleeding. The periosteum was gently scratched away from the skull with an eye scalpel and the temporal muscles were pushed aside, in order to expose enough space around the area of interest to attach the metal holder. When the skull was smooth, white and dry, fat was removed from the skull rapidly by passing on it a cotton swab soaked in acetone and the air current was used to avoid its penetration into the bone. Then, with a metal stick, a thin layer of cyanoacrylate glue (Loctite 401, Henkel, Germany) was applied to the surface of the skull, in order to make the skull transparent. After waiting 10 minutes for the glue to dry, a first layer of acryl was applied on the skull surface with a brush. Acryl was used to prolong the life of the transparency and was prepared by stirring acrylic powder (EUBECOS, Germany) with methacrylate liquid (Densply, Germany) until a nail-polish consistency was reached. After 30 minutes, a second layer of acryl was applied and was left to dry overnight. Finally, the animals were injected s.c. with 5 mg/kg Carprofen (ScanVet, Nord Ireland) for postoperative analgesia and i.p. with a wake-up composed by: 1.2 mg/kg Naloxone (Orpha-Devel Handels und Vertriebs GmbH, Austria), opioid receptor antagonist; 0.5 mg/kg Flumazenil (Hameln, Germany), GABA-A receptor antagonist; 2.5 mg/kg Atipamezole (Vet Medic animal Health Oy, Finland), adrenergic receptor antagonist; diluted in saline (B Braun, Germany). The next day, isoflurane at 4% was used for a couple of minutes to induce the anesthesia and then it was reduced at 2% for the procedure. The acryl layer was polished only on the area of interest, using a hand drill with a polishing bit. […]
Optical imaging. The saturation of haemoglobin in the primary visual cortex of the right hemisphere was measured to assess cortical activity ([Cang et al., 2005]; [Kalatsky and Stryker, 2003]). […]

mice [2] = experiment: BrdU incorporation (hippocampal neurogenesis); type: in vivo, mouse; conditions: FLX 15 mg/kg/day 21 days p.o.
Description: Animals: both males and females were used in this experiment. The Bromodeoxyuridine (BrdU) (Sigma) was administered intraperitoneally at the dose of 75 mg/kg four times every 2 hr to reach 300 mg/kg total for each animal. […] On day 21 of the drug treatment, the animals were euthanized by CO2, brains were quickly removed, followed by hippocampus dissection on ice, instantly frozen on dry ice and stored at −80°C until further use.
A semiquantitative dot-blot method was performed as previously described with minor modifications ([Wu and Castrén, 2009]). To isolate the DNA of the hippocampus samples, DNeasy® Blood and Tissue Kit (QIAGEN, Germany) was used. The extraction procedure was as per the manufacturer’s instruction. The DNA purity was assessed by the spectrophotometer NanoDrop 2000C (ThermoFisher Scientific, USA). DNA was incubated with 1 volume of 4N NaOH solution for 30 min at room temperature to render it as single stranded and immediately kept on ice to prevent reannealing. The DNA solution was neutralized by an equal volume of 1M Tris-HCl (pH 6.8). The single-stranded neutralized DNA (1ug) was dot-blotted onto a nylon transfer membrane (Schlleicher and Schuell, Keene, NH) with a dot-blot apparatus (Minifold, Schlleicher and Schuell) under vacuum and the DNA was fixed by ultraviolet cross-linker (1200 μJ × 100, Stratagene, La Jolla, CA). […]

TRKB/TRKA.TM = experiment: Cell-free ligand binding assay, chimeric TRKB with TMD of TRKA; conditions: biotinylated fluoxetine

Row | SMILES | shift in ocular dominance after 7-day monocular deprivation (mice [1]) | survival of newborn hippocampal neurons (mice [2]; TRKB.Y433F mice) | survival of newborn hippocampal neurons (mice [2]; wild-type mice) | binding to chimeric TRKB with the TMD of TRKA (TRKB/TRKA.TM)
1 | CNC1(c2ccccc2Cl)CCCCC1=O (stereo not shown) [KET, ketamine] | significant shift in OD |  |  | 
2 | CNCCC(Oc1ccc(C(F)(F)F)cc1)c1ccccc1 (stereo not shown) [FLX, fluoxetine] |  | no increase was observed | significantly increased survival of newborn hippocampal neurons | failed to bind; also recorded: very low
